# Data as given in US20220386613A1, “WEED CONTROL METHOD AND MIXED AGROCHEMICAL COMPOSITION FOR SOIL TREATMENT” (KUMIAI CHEMICAL INDUSTRY CO., LTD., priority 2019, published 2022).
# Experiments:
# Assay type in all cases: in vivo
# [1] = tested on: barnyard grass (Echinochloa crus-galli); assay: Herbicidal effect evaluation test on weeds by soil treatment (barnyard grass); details: Day 18 after treatment (4.2 L)
# Method: (§1) In a greenhouse having an average temperature of 25° C. (highest: 30° C., lowest: 25° C.), field soil (sandy loam) was filled in a plastic pot of 11 cm in length, width and depth, and twenty seeds of each of barnyard grass (Echinochloa crus-galli) and redroot amaranth (Amaranthus retroflexus) were sowed and covered with the same soil at a thickness of 1 cm. […] On the day of this chemical treatment, a total of 2-mm rainfall was artificially applied in 30 minutes using an artificial rain maker. Thereafter, barnyard grass and redroot amaranth were grown and, on Day 18 after the treatment, the growth conditions of barnyard grass and redroot amaranth were observed and examined. The rates of reduction in the plant height and the number of leaves relative to an untreated area were each calculated, and the herbicidal effect was determined as a value obtained by adding the thus calculated rates of reduction and dividing this value by 2 for evaluation of the degree of the herbicidal effect. For example, the herbicidal effect is 90% when the plant height was decreased by 90% and the number of leaves was reduced from 10 to 1, while the herbicidal effect is 75% when the plant height was decreased by 70% and the number of leaves was reduced from 5 to 1. It is noted here that, in Table 1, each value of the herbicidal effect represents an average value of two herbicidal effect evaluation tests.
# [2] = tested on: soybean (Glycine max); assay: Evaluation test of crop injury to soybean by soil treatment; details: 15-mm rainfall
# Method: In a greenhouse having an average temperature of 25° C. (highest: 30° C., lowest: 25° C.), field soil (sandy loam) was filled in a plastic pot of 11 cm in length, width and depth, and a single seed of soybean (Glycine max) was sowed and covered with the same soil at a thickness of 2 cm. […] On the day of this chemical treatment, a total of 15-mm rainfall was artificially applied in 30 minutes using an artificial rain maker. Thereafter, the soybean was grown and, on Day 15 and Day 39 after the treatment or on Day 13 and Day 26 after the treatment, the growth conditions of the soybean were observed and examined in terms of the plant height and the number of leaves. The rates of reduction in the plant height and the number of leaves relative to an untreated area were each determined, and the thus determined rates of reduction were added and then divided by 2 to calculate the growth inhibition rate for evaluation of the degree of crop injury. […] It is noted here that, in Tables 2 to 5, each growth inhibition rate represents an average value of two crop injury evaluation tests. […] The values observed in the test each indicated an effect lower than the expected value calculated by the following Colby formula at a preferable dosage (see S. R. Colby, Weeds 15(1967), pp. 20-22). Colby's formula defines the expected value (E) as follows for the use of a combination of two chemical agents: (E)=X+Y−XY/100 wherein X represents the growth inhibition rate of an agent a at a concentration of x, and Y represents the growth inhibition rate of an agent b at a concentration of y.
# [3] = tested on: redroot amaranth (Amaranthus retroflexus); assay: Herbicidal effect evaluation test on weeds by soil treatment (redroot amaranth); details: Day 18 after treatment (4 L)
# Method: as §1
# [4] = active component 70 g/ha (flumioxazin)
# [5] = active component 140 g/ha (flumioxazin)
# [6] = active component 25 g/ha (saflufenacil)
# [7] = active component 50 g/ha (saflufenacil)
# [8] = active component 160 g/ha (sulfentrazone)
# [9] = active component 320 g/ha (sulfentrazone)
structure (smiles),measurement,setting,value
"C#CCN1C(=O)COc2cc(F)c(N3C(=O)C4=C(CCCC4)C3=O)cc21 [Flumioxazin, flumioxazin]","Herbicidal effect, barnyard grass",[1]; [4],100%
same,"Herbicidal effect, barnyard grass",[1]; [5],100%
same,Soybean growth inhibition rate,"[2]; Table 2, 70 g/ha (flumioxazin), Day 15 after treatment",15%
same,Soybean growth inhibition rate,"[2]; Table 2, 70 g/ha (flumioxazin), Day 39 after treatment",5%
same,Soybean growth inhibition rate,"[2]; Table 3, 140 g/ha (flumioxazin), Day 15 after treatment",25%
same,Soybean growth inhibition rate,"[2]; Table 3, 140 g/ha (flumioxazin), Day 39 after treatment",10%
same,Soybean growth inhibition rate,"[2]; Table 4, 70 g/ha (flumioxazin), Day 13 after treatment",8%
same,Soybean growth inhibition rate,"[2]; Table 4, 70 g/ha (flumioxazin), Day 26 after treatment",10%
same,"Herbicidal effect, redroot amaranth",[3]; [4],100%
same,"Herbicidal effect, redroot amaranth",[3]; [5],100%
"CC(C)N(C)S(=O)(=O)NC(=O)c1cc(-n2c(=O)cc(C(F)(F)F)n(C)c2=O)c(F)cc1Cl [Saflufenacil, saflufenacil]","Herbicidal effect, barnyard grass",[1]; [6],15%
same,"Herbicidal effect, barnyard grass",[1]; [7],65%
same,Soybean growth inhibition rate,"[2]; Table 4, 25 g/ha (saflufenacil), Day 13 after treatment",20%
same,Soybean growth inhibition rate,"[2]; Table 4, 25 g/ha (saflufenacil), Day 26 after treatment",30%
same,Soybean growth inhibition rate,"[2]; Table 5, 50 g/ha (saflufenacil), Day 13 after treatment",30%
same,Soybean growth inhibition rate,"[2]; Table 5, 50 g/ha (saflufenacil), Day 26 after treatment",30%
same,"Herbicidal effect, redroot amaranth",[3]; [6],100%
same,"Herbicidal effect, redroot amaranth",[3]; [7],100%
"Cc1nn(-c2cc(NS(C)(=O)=O)c(Cl)cc2Cl)c(=O)n1C(F)F [Sulfentrazone, sulfentrazone]","Herbicidal effect, barnyard grass",[1]; [8],100%
same,"Herbicidal effect, barnyard grass",[1]; [9],100%
same,"Herbicidal effect, redroot amaranth",[3]; [8],100%
same,"Herbicidal effect, redroot amaranth",[3]; [9],100%
